These results are taken from patent publication US20250051319A1 (AUGUSTINE THERAPEUTICS, priority 2021, published 2025).

In the assay the target is catalytic domain 2 (CD2) of HDAC6 (Homo sapiens (Human), UniProt Q9UBN7). The assay is described as follows: Cellular target engagement assay - NanoBRET. It counts as cell-based. The conditions noted are these: NanoLuc-HDAC6(CD2) in HEK293T cells, 2 hours, read-out: IC50 (HDAC6(CD2) interaction). The protocol: NanoBRET target engagement was performed against the catalytic domain 2 (CD2) of HDAC6, with minor modifications of kit manufacturer protocol (Promega). Expression of exogenous NanoLuc-HDAC6(CD2) fusion and in HEK293T was achieved following transient transfection with FuGENE HD Transfection Reagent (Promega). The intracellular target engagement assay on HDAC6(CD2) was performed in a 384-well plate format with 8,000 cells per well and a tracer concentration of 0.125 μM or 0.600 μM for HDAC6(CD2). Compounds (dissolved in 100% DMSO) or DMSO (vehicle) were added either manually by diluting them in culture medium at 8× final assay concentration and then adding 5 μL to assay plate or in an automated way by adding […] compound to 5 μL OptiMEM without phenol red (Gibco) using the Echo650 (Labcyte). Tracer solution was added to the cells before seeding 35 μL cell/tracer mixture in the assay plate. The final reaction volume was 40 μL, final DMSO concentration was 1.4% (manual compound addition) or 1.25% (automated compound addition). Assay plates were incubated at 37° C. in a humidified atmosphere containing 5% C02 for 2 hours. The NanoBRET Nano-glo Substrate/Inhibitor was prepared by diluting NanoBRET Nano-Glo Substrate (1:332) and Extracellular Inhibitor (1:1000) in assay medium (Promega). […] BRET ratios were calculated from acceptor/donor signal ratio (mBRET=acceptor/donor*1000) and normalized for each plate. Percentage inhibition was calculated by setting the mBRET obtained with cells without tracer to 100%, while the mBRET obtained with uninhibited cells with tracer was set to 0%. IC50-values were calculated from the percentage inhibition with the log(inhibitor) vs. response—Variable slope (four parameters) nonlinear regression in GraphPad Prism software.
Sequence of catalytic domain 2 (CD2) of HDAC6 (Q9UBN7 482-800): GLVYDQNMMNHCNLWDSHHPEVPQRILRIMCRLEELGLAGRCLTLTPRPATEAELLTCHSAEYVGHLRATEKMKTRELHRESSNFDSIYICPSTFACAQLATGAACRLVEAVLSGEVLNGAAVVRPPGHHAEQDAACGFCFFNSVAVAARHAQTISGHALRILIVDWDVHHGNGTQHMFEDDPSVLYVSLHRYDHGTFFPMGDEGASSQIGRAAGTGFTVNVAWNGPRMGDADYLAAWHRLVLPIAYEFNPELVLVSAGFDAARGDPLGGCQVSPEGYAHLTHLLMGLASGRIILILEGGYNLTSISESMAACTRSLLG
As for `Cc1nc(SCC(=O)c2ccc(CNC(=O)C3CC3(F)F)s2)c2cc(OC(F)(F)F)ccc2n1` (stereo not drawn) [Compound 120, 2,2-difluoro-N-((5-(2-((2-methyl-6-(trifluoromethoxy)quinazolin-4-yl)thio)acetyl)thiophen-2-yl)methyl)cyclopropane-1-carboxamide], the IC50 lay in the range of 0.1 to 0.5 µM.

For the compound `O=C(CSc1nc(C(F)(F)F)nc2ncccc12)c1ccc(CNS(=O)(=O)C2CC2)s1` [Compound 122, N-((5-(2-((2-(trifluoromethyl)pyrido[2,3-d]pyrimidin-4-yl)thio)acetyl)thiophen-2-yl)methyl)cyclopropanesulfonamide], the IC50 is no more than 0.1 µM.

Turning to `COc1ccc2nc(C)nc(SCC(=O)c3ccc(CNC(=O)C4CCCN4)s3)c2c1` (stereo not drawn) [Compound 184, N-((5-(2-((6-methoxy-2-methylquinazolin-4-yl)thio)acetyl)thiophen-2-yl)methyl)pyrrolidine-2-carboxamide], the IC50 was 0.1 to 0.5 µM.

On to `CC(=O)NCCc1ccc(C(=O)CSc2nc3nc(C)ccc3o2)s1` [Compound 104, N-(2-(5-(2-((5-methyloxazolo[4,5-b]pyridin-2-yl)thio)acetyl)thiophen-2-yl)ethyl)acetamide], for which the IC50 is 0.1 to 0.5 µM.

`COc1ccc2oc(SCC(=O)c3ccc(CNC(=O)CO)s3)nc2c1` [Example 167, 2-hydroxy-N-((5-(2-((5-methoxybenzo[d]oxazol-2-yl)thio)acetyl)thiophen-2-yl)methyl)acetamide]: the IC50 lay in the range of 1 to 10 µM.

Regarding `COc1ccc2c(SCC(=O)c3ccc(CNC(=O)CO)s3)nc(C)nc2c1` [Compound 70, 2-hydroxy-N-((5-(2-((7-methoxy-2-methylquinazolin-4-yl)thio)acetyl)thiophen-2-yl)methyl)acetamide], the IC50 lay within 0.1 to 0.5 µM.

On to `COc1ccc2nc(C)nc(SCC(=O)c3ccc(CNC(=O)[C@H](C)O)s3)c2c1` [Compound 185, (S)-2-hydroxy-N-((5-(2-((6-methoxy-2-methylquinazolin-4-yl)thio)acetyl)thiophen-2-yl)methyl)propanamide], for which the half-maximal inhibitory concentration (IC50) was no more than 0.1 µM.

As to `COc1ccc2nc(C)nc(SCC(=O)c3ccc(CNC(=O)N(C)C)s3)c2c1` [Example 189, 3-((5-(2-((6-methoxy-2-methylquinazolin-4-yl)thio)acetyl)thiophen-1-yl)methyl)-1,1-dimethylurea], the concentration for half-maximal inhibition (IC50) is 0.1 to 0.5 µM.

As for `Cn1cc2c(SCC(=O)c3ccc(CNC(=O)C4CC4)s3)nc(C(F)(F)F)nc2n1` [Example 41, N-((5-(2-((2-methyl-6-(trifluoromethyl)-2H-pyrazolo[3,4-d]pyrimidin-4-yl)thio)acetyl)thiophen-2-yl)methyl)cyclopropanecarboxamide], the IC50 was no more than 0.1 µM.

On to `O=C(CO)NCc1ccc(C(=O)CSc2nc3cc(Cl)ccc3o2)s1` [Example 174, N-((5-(2-((5-chlorobenzo[d]oxazol-2-yl)thio)acetyl)thiophen-2-yl)methyl)-2-hydroxyacetamide], for which the IC50 lay in the range of 1 to 10 µM.

With `COc1ccc2nc(C)nc(SCC(=O)c3ccc(CNC(=O)C4CN(C)C4)s3)c2c1` [Compound 178, N-((5-(2-((6-methoxy-2-methylquinazolin-4-yl)thio)acetyl)thiophen-2-yl)methyl)-1-methylazetidine-3-carboxamide], the IC50 was no more than 0.1 µM.

Turning to `Cn1ncc2c(SCC(=O)c3ccc(CNC(=O)C(O)C(F)(F)F)s3)ncnc21` (stereo not drawn) [Compound 42, 3,3,3-trifluoro-2-hydroxy-N-((5-(2-((1-methyl-1H-pyrazolo[3,4-d]pyrimidin-4-yl)thio)acetyl)thiophen-2-yl)methyl)propanamide], the IC50 is 0.5 to 1 µM.

As to `CCc1nc(SCC(=O)c2ccc(CNC(=O)C(C)(C)C)s2)c2ccccc2n1` [Example 13, N-((5-(2-((2-ethylquinazolin-4-yl)thio)acetyl)thiophen-2-yl)methyl)pivalamide], the IC50 fell in the range of 0.1 to 0.5 µM.

Regarding `COc1cnc2nc(C)nc(SCC(=O)c3ccc(CN4CCOCC4=O)s3)c2c1` [Example 161, 4-((5-(2-((6-methoxy-2-methylpyrido[2,3-d]pyrimidin-4-yl)thio)acetyl)thiophen-2-yl)methyl)morpholin-3-one], the IC50 lay in the range of 0.1 to 0.5 µM.

On to `Cn1cc2c(SCC(=O)c3ccc(CNC(=O)C4(O)CC4)s3)nc(C(F)(F)F)nc2n1` [Compound 49, 1-hydroxy-N-((5-(2-((2-methyl-6-(trifluoromethyl)-2H-pyrazolo[3,4-d]pyrimidin-4-yl)thio)acetyl)thiophen-2-yl)methyl)cyclopropane-1-carboxamide], for which the IC50 is no more than 0.1 µM.

In the case of `CC(NC(=O)CO)c1ccc(C(=O)CSc2nc3cnc(C(F)(F)F)cc3o2)s1` (stereo in doubt) [Example 129, (S)-2-hydroxy-N-(1-(5-(2-((6-(trifluoromethyl)oxazolo[4,5-c]pyridin-2-yl)thio)acetyl)thiophen-2-yl)ethyl)acetamide], the IC50 was no more than 0.1 µM.

Consider `CNc1cc(C(F)(F)F)cc2c(SCC(=O)c3ccc(CNC(=O)CO)s3)nc(C)nc12` [Compound 151, 2-hydroxy-N-((5-(2-((2-methyl-8-(methylamino)-6-(trifluoromethyl)quinazolin-4-yl)thio)acetyl)thiophen-2-yl)methyl)acetamide], for which the IC50 lay in the range of 0.1 to 0.5 µM.

With `O=C(CSc1nc(C(F)(F)F)nc2ncccc12)c1ccc(CN2CCC(O)C2=O)s1` (stereo in doubt) [Example 156, (R)-3-hydroxy-1-((5-(2-((2-(trifluoromethyl)pyrido[2,3-d]pyrimidin-4-yl)thio)acetyl)thiophen-2-yl)methyl)pyrrolidin-2-one], the IC50 is no more than 0.1 µM.

In the case of `COc1cc2c(SCC(=O)c3ccc(CNC(=O)CO)s3)nc(C)nc2cn1` [Compound 121, 2-hydroxy-N-((5-(2-((6-methoxy-2-methylpyrido[3,4-d]pyrimidin-4-yl)thio)acetyl)thiophen-2-yl)methyl)acetamide], the IC50 was no more than 0.1 µM.

Regarding `COc1ccc2nc(SCC(=O)c3ccc(CNC(=O)CO)s3)[nH]c2n1` [Example 173, 2-hydroxy-N-((5-(2-((5-methoxy-3H-imidazo[4,5-b]pyridin-2-yl)thio)acetyl)thiophen-2-yl)methyl)acetamide], the IC50 was 1 to 10 µM.

Turning to `COc1ccc2nc(C)nc(SCC(=O)c3ccc(CCN4CCC(O)C4=O)s3)c2c1` (stereo not drawn) [Example 115, 3-hydroxy-1-(2-(5-(2-((6-methoxy-2-methylquinazolin-4-yl)thio)acetyl)thiophen-2-yl)ethyl)pyrrolidin-2-one], the IC50 fell in the range of 0.5 to 1 µM.

For `Cn1cc2c(SCC(=O)c3ccc(CNC(=O)C(O)C(F)(F)F)s3)nc(C(F)(F)F)nc2n1` (stereo not drawn) [Compound 46, 3,3,3-trifluoro-2-hydroxy-N-((5-(2-((2-methyl-6-(trifluoromethyl)-2H-pyrazolo[3,4-d]pyrimidin-4-yl)thio)acetyl)thiophen-2-yl)methyl)propanamide], the IC50 was no more than 0.1 µM.

Turning to `COc1ccc2nc(C)nc(SCC(=O)c3ccc(CNC(=O)CN)s3)c2c1` [Compound 177, 2-amino-N-((5-(2-((6-methoxy-2-methylquinazolin-4-yl)thio)acetyl)thiophen-2-yl)methyl)acetamide], the IC50 was in the range of 0.1 to 0.5 µM.

Consider `Cn1cc2c(SCC(=O)c3ccc(CNC(=O)C4CC4(F)F)s3)nc(C(F)(F)F)nc2n1` (stereo not drawn) [Compound 111, 2,2-difluoro-N-((5-(2-((2-methyl-6-(trifluoromethyl)-2H-pyrazolo[3,4-d]pyrimidin-4-yl)thio)acetyl)thiophen-2-yl)methyl)cyclopropane-1-carboxamide], for which the IC50 lay within 0.1 to 0.5 µM.
